Laboratory results reported in patent US10746637B2, “Aldehyde scavenging agent for retrieving elements from fixed tissue” (University of Houston System, priority 2013, dated 2020).
Read-outs that look alike come from different tables or passages of the source.

Columns and labels:
[1] = system: GFAP; test: Microscope images of GFAP immunostaining after antigen retrieval (FIGS. 15-18)
[2] = system: Angiotensin I; test: Mass spectrometry of formalin treated Angiotensin I after heating with aldehyde scavenging compounds; conditions: 5% compound, 95° C., 45 minutes
Procedure: Angiotensin I is treated with formalin at room temperature for 48 hours. […] Mass-spectrometry is used to analyze the compositions of the Angiotensin I before and after treatment by each compound. Samples of Angiotensin I before (FIG. 11A) and after (FIG. 11B) formalin treatments are used as the controls for the experiment. Peaks at m/z 1296 represent unmodified Angiotensin I. Peaks at m/z 1308 represent Angiotensin I with 1 methylene unit. Peaks at m/z 1320 represent Angiotensin I with 2 methylene units. Peaks at m/z 1338 represent Angiotensin I with 1 methylene unit and 1 hydroxymethylene group. Peaks at m/z 1350 represent Angiotensin I with 2 methylene units and 1 hydroxymethylene group.

[3] = system: collagen IV
[4] = system: RNA; test: Recovery of RNA from formalin-fixed paraffin-embedded tissue samples (FIG. 30)
[5] = system: Collagen IV; test: Immunohistochemical staining of Collagen IV on formalin fixed paraffin embedded mouse brain sections after antigen retrieval with formaldehyde scavengers and enhancer; design: key: − being non-reactive; Immunoreactivity was scored on a scale of − to +++; Immunoreactivity was scored on a scale of − to +++; +++ being highly reactive; conditions: 45 minutes at 95° C.
Procedure: 12-month-old C57Bl6J mice were housed under controlled environment conditions on a condition al 12 hour light dark cycle. Following sacrifice, brains were post-fixed in 4% paraformaldehyde for 72 hours at […] and then transferred to 70% ethanol solution where they were stored at 4° C. Tissue was paraffin-processed using convention dehydration and embedding, and then sectioned at 5 μm intervals.
Tissues were deparaffinized and rehydrated. Slides were placed in a plastic Coplin jar containing either distilled water or a combination of formaldehyde scavengers in combination with an enhancer. Jars were covered with a loose fitting screw cap and heated in a pressure cooker for 45 minutes at 95° C. After heating, the Coplin jars were removed and allowed to cool and rinsed in TBST for five minutes.
Immunohistochemical staining was performed using a three-step immunostaining technique using the ABC method. Briefly, all incubations were performed as follows: 1) primary antibodies were incubated overnight at 4° C., 2) secondary antibodies were incubated for 10 minutes at room temperature, 3) streptavidin-conjugated enzyme was incubated for 10 minutes at room temperature, 4) peroxidase substrate was incubated for 1 minute.

[6] = system: blood vessels; test: Antigen retrieval in paraformaldehyde fixed vascular tissue, visualization of blood vessels; conditions: paraformaldehyde fixed tissue heated in solution of compound (FIGS. 4A-4E)
Excerpt: Paraformaldehyde fixed tissue samples are heated in solutions of compounds prepared as described in Example 1 and the blood vessels in the tissue are visualized.

[7] = system: Collagen IV; test: Immunohistochemical staining of Collagen IV after antigen retrieval with 0.05% maleic acid and cooling in a second solution; design: species or system mouse; key to Result (immunoreactivity, Collagen IV staining): − being non-reactive; Immunoreactivity was scored on a scale of − to +++; Immunoreactivity was scored on a scale of − to +++; +++ being highly reactive; conditions: for immunostaining of Collagen IV after antigen retrieval with maleic acid and cooling to room temperature: FIGS. 31A-31C, compared to dH2O; for Result (immunoreactivity, Collagen IV staining): Table 9, retrieval with 0.05% maleic acid 45 minutes at 95° C., then cooling to room temperature in the named solution (10% guanidine or 2,2,2-trifluoroethanol in water)
Procedure: 12-month-old […] mice were housed under controlled environment conditions on a condition al 12 hour light dark cycle. Following sacrifice, brains were post-fixed in 4% paraformaldehyde for 72 hours at 4° C. and then transferred to 70% ethanol solution where they were stored at 4° C. Tissue was paraffin-processed using convention dehydration and embedding, and then sectioned at 5 μm intervals. Tissues were deparaffinized and rehydrated. […] Jars were covered with a loose fitting screw cap and heated in a pressure cooker for 45 minutes at 95° C. After heating, the Coplin jars were removed and slides were allowed to cool to room temperature in either 10% guanidine or 2,2,2-trifluoroethanol in water and rinsed in TBST for five minutes. Immunohistochemical staining was performed using a three-step immunostaining technique using the ABC method. Briefly, all incubations were performed as follows: 1) primary antibodies were incubated overnight at 4° C., 2) secondary antibodies were incubated for 10 minutes at room temperature, 3) streptavidin-conjugated enzyme was incubated for 10 minutes at room temperature, 4) peroxidase substrate was incubated for 1 minute.

[8] = microscope images, figure legends
[9] = compared to control buffer (FIG. 30)
[10] = Table 2, aniline compounds, FFPE mouse brain sections

`N[C@@H](CS)C(=O)O` [cysteine] was tested. Which “immunostaining of GFAP after antigen retrieval” value (shortened to “immunostaining of GFAP”) [1, 8] did it give?
Its value is “enhanced immunostaining”.

What about the “retrieval of formalin adducts of Angiotensin I” value [2] of the same molecule?
The value was “significant retrieval of formalin adducts”.

Which “immunostaining of Collagen IV after antigen retrieval” value [3, 8] does the source give for `NC(=O)C[C@H](N)C(=O)O` [L-asparagine] here?
Its value is “enhanced immunostaining”.

`O=C1CC(=O)NC(=O)N1` [barbituric acid] was tested. Which “immunostaining of Collagen IV after antigen retrieval” value [3] did it give?
Its value is “enhanced immunostaining”.

What does the source list for `NO` [1% Hydroxylamine, Hydroxylamine]?
recovery of RNA from formalin-fixed paraffin-embedded tissue samples [4, 9]: enhanced recovery of RNA; Result (immunoreactivity, Collagen IV staining) ([5]; Table 3, 1% hydroxylamine alone or with 4-aminophenol, concentrations in label): +; Result (immunoreactivity, Collagen IV staining) ([5]; Table 4, 1% hydroxylamine alone or with aniline, concentrations in label): +; Result (immunoreactivity, Collagen IV staining) ([5]; Table 5, 0.5% hydroxylamine alone or with aniline, concentrations in label): +; retrieval of formalin adducts of Angiotensin I [2]: significant retrieval of formalin adducts; immunostaining of Collagen IV after antigen retrieval [3, 8]: enhanced immunostaining

Which “immunostaining of Collagen IV after antigen retrieval” value [3, 8] does the source give for `Cc1ncc(CO)c(CN)c1O` [pyridoxamine] here?
Its value is “enhanced immunostaining”.

How did the “antigen retrieval with visualization of the blood vessels” value (“antigen retrieval with visualization” below) [6] turn out when `CC1=C(C)C(=O)OC1=O` [2,3-dimethylmaleic anhydride] was run?
Its value is “successful antigen retrieval”.

How did the “antigen retrieval with visualization” value [6] turn out when `O=C1CCC(=O)O1` [succinic anhydride, reference compound] was run?
The value was “no vasculature is visible”.

For `O=C1CCCN1` [2-pyrrolidinone], which “immunostaining of Collagen IV after antigen retrieval” value [3, 8] is on record?
Its value is “enhanced immunostaining”.

How did the “recovery of RNA from formalin-fixed paraffin-embedded tissue samples” value (from here on “recovery of RNA”) [4, 9] turn out when `CCON` [O-ethylhydroxylamine] was run?
Its value is “enhanced recovery of RNA”.

What about the “immunostaining of Collagen IV after antigen retrieval” value [3, 8] of the same molecule?
The value was “enhanced immunostaining”.

Which “recovery of RNA” value [4, 9] does the source give for `COc1ccc(N)c(C(=O)O)c1` [2-Amino-5-methoxybenzoic acid] here?
The value was “enhanced recovery of RNA”.

And the “Result (immunoreactivity, Collagen IV staining)” value (“Result” below) [5, 10]?
Its value is “−”.

What does the source list for `Nc1ccc(S(=O)(=O)O)cc1` [Sulfanilic acid]?
recovery of RNA from formalin-fixed paraffin-embedded tissue samples [4, 9]: enhanced recovery of RNA; Result (immunoreactivity, Collagen IV staining) [5, 10]: ++; immunostaining of Collagen IV after antigen retrieval [3, 8]: enhanced immunostaining

How did the “immunostaining of Collagen IV after antigen retrieval” value [3, 8] turn out when `CC(=O)CC(N)=O` [acetoacetamide] was run?
Its value is “enhanced immunostaining”.

Which “immunostaining of Collagen IV after antigen retrieval” value [3, 8] does the source give for `O=C1CCC(=O)N1` [succinimide] here?
The value was “enhanced immunostaining”.

With `CCOc1ccc(N)cc1` [4-Ethoxyaniline] as the molecule, how does the “Result” value [5, 10] read?
Its value is “+”.

And the “immunostaining of Collagen IV after antigen retrieval” value [3]?
Its value is “enhanced immunostaining”.

How did the “immunostaining of Collagen IV after antigen retrieval with maleic acid and cooling to room temperature” value [7] turn out when `OCC(F)(F)F` [2,2,2-Trifluoroethanol] was run?
The value was “enhanced immunostaining”.

And the “Result” value [7]?
Its value is “++”.

How did the “immunostaining of Collagen IV after antigen retrieval” value [3, 8] turn out when `CC1(C)CC(=O)CC(=O)C1` [dimedone, 5,5-dimethyl-1,3-cylohexanedione] was run?
Its value is “enhanced immunostaining”.

What does the source list for `N=C(N)N` [Guanidine]?
immunostaining of Collagen IV after antigen retrieval with maleic acid and cooling to room temperature [7]: enhanced immunostaining; Result (immunoreactivity, Collagen IV staining) [7]: ++; amount of Angiotensin I with 2 methylene units (m/z 1320) [2]: does not exhibit any impact; content of Angiotensin I with 1 methylene unit and 1 hydroxymethylene group (m/z 1338) [2]: minimal ability to retrieve; immunostaining of Collagen IV after antigen retrieval [3, 8]: enhanced immunostaining

With `CC(N)(CO)CO` [2-amino-2-methyl-1,3-propanediol] as the molecule, how does the “immunostaining of Collagen IV after antigen retrieval” value [3, 8] read?
Its value is “enhanced immunostaining”.

How did the “antigen retrieval with visualization” value [6] turn out when `O=C(O)/C=C/C(=O)O` [fumaric acid, reference compound] was run?
The value was “significant reduction in activity”.

Which “recovery of RNA” value [4] does the source give for `COc1ccc(N)cc1` [p-Anisidine] here?
Its value is “enhanced recovery of RNA”.

What about the “Result” value [5, 10] of the same molecule?
The value was “++”.

And the “immunostaining of Collagen IV after antigen retrieval” value [3]?
Its value is “enhanced immunostaining”.

Which results are given for `O=C(O)CC(O)(CC(=O)O)C(=O)O` [citric acid, reference compound]?
amount of Angiotensin I with 2 methylene units (m/z 1320) [2]: significantly reduce; content of Angiotensin I with 1 methylene unit and 1 hydroxymethylene group (m/z 1338) [2]: significantly reduce; retrieval of formalin adducts of Angiotensin I [2]: significant retrieval of formalin adducts

How did the “immunostaining of Collagen IV after antigen retrieval” value [3, 8] turn out when `O=C(OC[C@H]1O[C@@H](OC(=O)c2cc(O)c(O)c(OC(=O)c3cc(O)c(O)c(O)c3)c2)[C@H](OC(=O)c2cc(O)c(O)c(OC(=O)c3cc(O)c(O)c(O)c3)c2)[C@@H](OC(=O)c2cc(O)c(O)c(OC(=O)c3cc(O)c(O)c(O)c3)c2)[C@@H]1OC(=O)c1cc(O)c(O)c(OC(=O)c2cc(O)c(O)c(O)c2)c1)c1cc(O)c(O)c(OC(=O)c2cc(O)c(O)c(O)c2)c1` [tannic acid] was run?
Its value is “enhanced immunostaining”.

Which “amount of Angiotensin I with 2 methylene units (m/z 1320)” value [2] does the source give for `O=C1NCCN1` [imidazolidone] here?
The value was “significantly reduce”.

And the “content of unmodified Angiotensin I (m/z 1296)” value [2]?
Its value is “higher content of unmodified Angiotensin I”.

`Sc1nc(S)nc(S)n1` [1,3,5-triazine-2,4,6-trithiol] was tested. Which “immunostaining of GFAP” value [1, 8] did it give?
The value was “enhanced immunostaining”.

Which “recovery of RNA” value [4, 9] does the source give for `Nc1ccc(O)cc1` [4-Aminophenol] here?
The value was “enhanced recovery of RNA”.

And the “Result” value [5, 10]?
The value was “++”.

What about the “immunostaining of Collagen IV after antigen retrieval” value [3, 8] of the same molecule?
The value was “enhanced immunostaining”.

For `NCCS` [cysteamine], which “immunostaining of GFAP” value [1, 8] is on record?
The value was “enhanced immunostaining”.

`O=S([O-])S(=O)(=O)[O-].[Na+].[Na+]` [sodium metabisulfite] was tested. Which “immunostaining of GFAP” value [1, 8] did it give?
Its value is “enhanced immunostaining”.

For `O=S([O-])O.[Na+]` [sodium bisulfite], which “immunostaining of GFAP” value [1] is on record?
The value was “enhanced immunostaining”.

`CCCC(N)O` (stereo not drawn) [1-amino-1-butanol] was tested. Which “immunostaining of Collagen IV after antigen retrieval” value [3, 8] did it give?
The value was “enhanced immunostaining”.

For `Nc1ccccc1` [Aniline], which “recovery of RNA” value [4, 9] is on record?
The value was “enhanced recovery of RNA”.

What about the “Result” value [5, 10] of the same molecule?
The value was “++”.

And the “immunostaining of Collagen IV after antigen retrieval” value [3, 8]?
Its value is “enhanced immunostaining”.

How did the “Result” value [5, 10] turn out when `Nc1ccc(N)cc1` [p-Phenylenediamine] was run?
Its value is “+”.

And the “immunostaining of Collagen IV after antigen retrieval” value [3]?
Its value is “enhanced immunostaining”.

With `NOCC(=O)O` [O-(carboxymethyl)hydroxylamine] as the molecule, how does the “recovery of RNA” value [4, 9] read?
The value was “enhanced recovery of RNA”.

And the “immunostaining of Collagen IV after antigen retrieval” value [3, 8]?
The value was “enhanced immunostaining”.

Which results are given for `NOCc1ccccc1` [1% O-Benzylhydroxylamine, O-Benzylhydroxylamine]?
recovery of RNA from formalin-fixed paraffin-embedded tissue samples [4, 9]: enhanced recovery of RNA; Result (immunoreactivity, Collagen IV staining) ([5]; Table 6, 1% O-benzylhydroxylamine alone or with aniline, concentrations in label): +; Result (immunoreactivity, Collagen IV staining) ([5]; Table 7, 0.5% O-benzylhydroxylamine alone or with aniline, concentrations in label): +; immunostaining of Collagen IV after antigen retrieval [3, 8]: enhanced immunostaining
